This note sets out measurements from ChEMBL document CHEMBL1201862, “PubChem BioAssay data set” (2004).

SMILES strings stand for the structures.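 96-well plates; 48 h exposure; 5 concentrations. Endpoints by linear interpolation between flanking doses. Not reached: highest tested concentration assigned. Here, GI50 denotes the concentration required for 50% inhibition of growth.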 Activity calls are given as the source filed them. Rule as the data show it: active = GI50 up to about 1.1 µM and inactive = higher.

Common to all, as to assay: NCI tumour cell line growth inhibition, 48 h
Test [1] relates to KM12.
Test [2] has as its system SNB-19.
Test [3] concerns HCT-15.
Test [4] deals with CCRF-CEM.
The subject of test [5] is NCI/ADR-RES.
For test [6], the system named is MDA-N.
Test [7] has as its system HOP-92.
The test system of test [8] is MCF7.
Test [9] concerns HT-29.
For test [10], the system named is MDA-MB-231.
Test [11] relates to SNB-75.
Test [12] has as its system IGROV-1.
In test [13] the test system is Malme-3M.
Test [14] relates to PC-3.
In test [15] the test system is OVCAR-8.
Test [16] relates to OVCAR-3.
The test system of test [17] is DLD-1.
In test [18] the test system is SR.
Test [19] relates to LXFL 529.
The test system of test [20] is HOP-18.

In the case of `CCOC(=O)c1c(-c2cccc(Cl)c2)c(C(=O)OC)c(C)c2sc(C=O)nc12`, the GI50 in test [1] is 16.7 µM (inactive); in test [2], 98.9 µM (inactive); in [3], 19.8 µM; in [4], 12.8 µM (inactive); in [5], 25.8 µM (inactive); in [6], 19.9 µM (inactive). In addition, the GI50 in test [7] was 15.7 µM (inactive); in test [8] it was 17.8 µM (inactive); in [9], 21 µM (inactive); in [10], 15.6 µM (inactive); in [11], 21.6 µM (inactive); in [12], 17.5 µM (inactive). The GI50 in [13] is 19.3 µM (inactive); in test [14], 16.4 µM (inactive); in test [15], 19.8 µM (inactive); in test [16], 15.2 µM (inactive).

For the compound `CN1C2CCC1/C(=C/c1cccc3c1OCO3)C(=O)/C2=C\c1cccc2c1OCO2`, the GI50 in test [1] was > 100 µM (inactive); in test [17], > 100 µM (inactive); in [3], greater than 100 µM; in test [4], 78 µM (inactive); in test [7] it was 22.8 µM (inactive); in test [9] it was > 100 µM (inactive). Moreover, the GI50 was 11.1 µM (inactive) in test [11]; 30.1 µM (inactive) in test [12]; > 100 µM (inactive) in test [18]; > 100 µM (inactive) in test [13]; > 100 µM (inactive) in test [19]; > 100 µM (inactive) in test [15]. In test [16], the GI50 is 87.3 µM (inactive).

Regarding `CC1(C)N=C(N)N=C(N)N1c1ccc(CCc2ccccc2)cc1`, the GI50 in test [1] was 1.42 µM (inactive); in test [2] it was 1.14 µM (inactive); in test [17], 15.7 µM (inactive); in [3], 37.9 µM; in [4], 1.91 µM (inactive); in test [5], > 100 µM (inactive). Besides, the GI50 in test [7] was 22.1 µM (inactive); in [8], 1.32 µM (inactive); in [9], 0.565 µM (active); in test [11], 28.5 µM (inactive); in [20], 45.7 µM (inactive); in [12] it was 0.348 µM (active). For the same compound, the results for the GI50 in [13], in [15] and in [16] were 2.2 µM (inactive), 2.53 µM (inactive) and 1.79 µM (inactive), respectively.

`CCCCCC(/C=C/c1ncccc1OCCCCCC(=O)O)=N\NC1=NCCN1`: the GI50 is 54.3 µM (inactive) in test [1]; > 100 µM (inactive) in [2]; greater than 100 µM in test [3]; 53.6 µM (inactive) in [4]; 91 µM (inactive) in test [7]; > 100 µM (inactive) in test [9]. For the same compound, the GI50 was 40.2 µM (inactive) in [11]; > 100 µM (inactive) in test [12]; 39.4 µM (inactive) in test [18]; > 100 µM (inactive) in test [13]; 47.2 µM (inactive) in [19]; > 100 µM (inactive) in [15]. In addition, in test [16], the GI50 was 89.9 µM (inactive).
